Laboratory results: US8058283B2, “7H-pyrido[3,4-D]pyrimidin-8-ones, their manufacture and use as protein kinase inhibitors” (Hoffmann-La Roche Inc., priority 2006, dated 2011)

Experiments:
Type in all cases: biochemical
[1] = molecular target: T1, mouse Abl (27-end) fusion protein (Mus musculus, UniProt P00520); assay: IC50 determination for inhibitors of Abl kinase (IMAP fluorescence polarization); conditions: 22.8 uM ATP, 37° C., 60 minutes; read-out: IC50 Abl kinase inhibition
T1 construct: fusion protein corresponding to mouse Abl (27-end)
T1 sequence (P00520 27-1123 limits assumed): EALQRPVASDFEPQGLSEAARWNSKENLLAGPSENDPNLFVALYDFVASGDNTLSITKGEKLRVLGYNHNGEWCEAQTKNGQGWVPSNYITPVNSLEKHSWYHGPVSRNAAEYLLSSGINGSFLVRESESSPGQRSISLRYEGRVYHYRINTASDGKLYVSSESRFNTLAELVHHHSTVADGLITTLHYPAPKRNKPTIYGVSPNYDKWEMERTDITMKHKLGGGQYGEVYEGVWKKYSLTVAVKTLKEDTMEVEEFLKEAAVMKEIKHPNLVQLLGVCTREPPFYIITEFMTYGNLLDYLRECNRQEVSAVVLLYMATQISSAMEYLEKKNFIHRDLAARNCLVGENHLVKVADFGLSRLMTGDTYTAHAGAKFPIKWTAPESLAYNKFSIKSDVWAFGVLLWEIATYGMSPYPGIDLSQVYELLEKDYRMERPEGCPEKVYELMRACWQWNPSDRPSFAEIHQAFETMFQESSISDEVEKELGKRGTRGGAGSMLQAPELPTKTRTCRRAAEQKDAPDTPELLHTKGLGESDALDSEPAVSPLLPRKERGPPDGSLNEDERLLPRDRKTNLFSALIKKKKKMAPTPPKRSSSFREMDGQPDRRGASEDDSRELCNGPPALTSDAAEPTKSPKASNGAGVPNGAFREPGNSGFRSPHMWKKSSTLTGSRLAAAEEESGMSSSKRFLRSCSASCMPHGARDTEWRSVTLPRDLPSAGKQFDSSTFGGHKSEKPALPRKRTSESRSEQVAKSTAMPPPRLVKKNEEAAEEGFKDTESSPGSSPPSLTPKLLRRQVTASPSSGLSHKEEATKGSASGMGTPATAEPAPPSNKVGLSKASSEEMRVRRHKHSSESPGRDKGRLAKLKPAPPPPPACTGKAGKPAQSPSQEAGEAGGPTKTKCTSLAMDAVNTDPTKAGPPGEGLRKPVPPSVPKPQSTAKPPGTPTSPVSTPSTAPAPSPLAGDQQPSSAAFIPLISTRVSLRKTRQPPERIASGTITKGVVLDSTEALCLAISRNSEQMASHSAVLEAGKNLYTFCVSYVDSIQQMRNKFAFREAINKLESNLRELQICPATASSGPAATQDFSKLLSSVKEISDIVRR
Procedure: IC50 Determination for Inhibitors of Abl Kinase
Abl assay was done using fusion protein corresponding to mouse Abl (27-end) fluorescein labeled peptide substrate (with a sequence of EAIYAAPFAKKK) and quantified by Molecular Devices' IMAP fluorescence polarization technology. Compounds were tested in serially diluted concentrations in 384 well plates. Kinase reaction was performed in KAB Buffer (10 mM HEPES, pH 7, 50 mM NaCl, 5 mM MgCl2, 1 mM DTT, 0.1 mM NaVO4, 0.02% BSA), in the presence of 22.8 uM ATP, incubated at 37° C. for 60 minutes. Reaction was stopped by IMAP bead mix (at 1:400 diluted). After incubation at room temperature for 3 hours, the reaction product was analyzed on LJL Acquest (excitation 485 nm and Emission 530 nm).
(§1) FP reading (in mP) was used to calculate reaction rate. The assay was semi-automated by Tomtec Quadra workstation.

[2] = molecular target: T2, Src (p60c-src) (Homo sapiens, UniProt P12931); assay: Src-Inhibitor-Assay (time-resolved fluorescence); conditions: ATP 5 μM; enzyme pre-incubated 15 min at 15° C. with inhibitor
T2 construct: purchased UBI, Upstate Biotech, Inc
T2 sequence (P12931 whole entry): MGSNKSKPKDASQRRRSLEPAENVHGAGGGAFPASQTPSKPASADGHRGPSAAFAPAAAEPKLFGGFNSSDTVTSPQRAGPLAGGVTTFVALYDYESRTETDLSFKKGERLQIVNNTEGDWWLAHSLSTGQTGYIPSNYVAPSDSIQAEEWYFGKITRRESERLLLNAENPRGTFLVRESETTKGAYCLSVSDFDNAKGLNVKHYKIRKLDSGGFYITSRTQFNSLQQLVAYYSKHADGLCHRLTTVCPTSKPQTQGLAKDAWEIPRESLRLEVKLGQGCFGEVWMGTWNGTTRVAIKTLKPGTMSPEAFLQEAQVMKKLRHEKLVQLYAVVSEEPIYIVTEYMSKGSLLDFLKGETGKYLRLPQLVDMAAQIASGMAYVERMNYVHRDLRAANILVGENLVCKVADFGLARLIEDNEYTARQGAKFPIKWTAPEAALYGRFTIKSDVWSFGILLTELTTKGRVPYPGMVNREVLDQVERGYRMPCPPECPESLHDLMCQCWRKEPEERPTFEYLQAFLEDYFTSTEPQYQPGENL
Procedure: Src-Inhibitor-Assay Parameters:
• ATP 5 μM • Peptide (Ro+Ja133-Ro): 10 μM • Ja133-Ro 196 nM • Ro 9.8 μM • PT66 230 ng/ml • Assay buffer: 4 mM MgCl2 • 2 mM TCEP • 50 mM HEPES • 0.1% Tween 20 • pH 7.3 • Enzyme: 2.5 U/ml • Inhibitor: max. 25 μM • min. 0.42 nM Material: • Eu-labelled phosphotyrosine antibody: —for Lck Cisbio Mab PT66-K, • for Src EG&G Wallac PT66 Eu-W1024 (all commercially available). • Peptides: Ro: NH2-A-E-E-E-I-Y-G-E-F-E-A-K-K-K-K-CONH2, and • Ja133-Ro: Ja133-G-Aminocaprylic acid-A-E-E-E-I-Y-G-E-F-E-A-K-K-K-K-CONH2, wherein Ja133 is LightCycler-Red 640-N-hydroxy succinimide ester; • whereby both peptides were synthesized by an optimized solid phase peptide synthesis protocol (Merrifield, Fed. Proc. Fed. Amer. Soc. Exp. Biol. 21 (1962) 412) on a Zinsser SMP350 peptide synthesizer. Shortly, the peptide was assembled on 160 mg (22.8 μmol scale) of a Rink-Linker modified polystyrene solid phase by repeatedly conjugating an twenty fold excess of amino acids each protected by temporary piperidine labile Fmoc- and permanent acid labile tert-Bu-, BOC- and O-tert-Bu-groups depending on the side chain function. The substrate sequence AEEEIYGEFEAKKKK was N-terminal additionally mounted with the spacer amino acids Aminocaprylic acid and Glycin. After cleavage of the N-terminal temporary protecting group the still attached and protected peptide was labeled with a 1.5 fold amount of LightCycler-Red 640-N-hydroxy succinimide ester (purchased from Roche Diagnostics GmbH) and triethylamine. After 3 hrs. the resin was washed with Dimethylformamide and Isopropanol until the eluates of the blue resin got colourless. […] The substrate was finally isolated by a preparative reverse phase HPLC purification. The purification yielded 12.2 mg RP-HPLC single peak pure blue material (lyophilisate). The identity was proven by MALDI mass spectroscopy [2720.0]. • Enzymes: Upstate Lck (p56^lck, active), Upstate Src (p60^c-src, partially purified) were purchased from UBI, Upstate Biotech, Inc. Time-resolved Fluorescence Assay: Reader: Perkin Elmer, Wallac Viktor 1420-040 multilabel counter; Liquid handling system: Beckman Coulter, Biomek 2000.
ATP, Tween™ 20, 4-(2-hydroxyethyl)-1-piperazineethanesulfonic acid (HEPES) were purchased from Roche Molecular Biochemicals, MgCl2 and MnCl2 were purchased from Merck Eurolab, Tris(2-carboxyethyl)phosphine hydrochloride (TCEP) was purchased from Pierce, 384 Well low volume fluorescence plates was purchased from Falcon.
At first the enzyme is pre-incubated for 15 min. at 15° C. in aqueous solution with corresponding amounts of inhibitors according to this invention. Then the phosphorylation reaction is started by adding a reaction mixture, containing ATP, Peptide and PT66, and subsequent shaking. The proceeding of this reaction is immediately monitored using time resolved fluorescence spectroscopy in a suitable well plate reader.
The IC50-values can be obtained from the reaction rates by using a non-linear curve fit (XLfit software (ID Business Solution Ltd., Guilford, Surrey, UK)).

[3] = molecular target: human recombinant PDGFR beta (Homo sapiens, UniProt P09619); assay: IC50 determination for inhibitors of PDGFR kinase (IMAP fluorescence polarization); conditions: 48 uM ATP, room temperature, 60 minutes; read-out: IC50 PDGFR kinase inhibition
Sequence of human recombinant PDGFR beta (P09619 33-1106): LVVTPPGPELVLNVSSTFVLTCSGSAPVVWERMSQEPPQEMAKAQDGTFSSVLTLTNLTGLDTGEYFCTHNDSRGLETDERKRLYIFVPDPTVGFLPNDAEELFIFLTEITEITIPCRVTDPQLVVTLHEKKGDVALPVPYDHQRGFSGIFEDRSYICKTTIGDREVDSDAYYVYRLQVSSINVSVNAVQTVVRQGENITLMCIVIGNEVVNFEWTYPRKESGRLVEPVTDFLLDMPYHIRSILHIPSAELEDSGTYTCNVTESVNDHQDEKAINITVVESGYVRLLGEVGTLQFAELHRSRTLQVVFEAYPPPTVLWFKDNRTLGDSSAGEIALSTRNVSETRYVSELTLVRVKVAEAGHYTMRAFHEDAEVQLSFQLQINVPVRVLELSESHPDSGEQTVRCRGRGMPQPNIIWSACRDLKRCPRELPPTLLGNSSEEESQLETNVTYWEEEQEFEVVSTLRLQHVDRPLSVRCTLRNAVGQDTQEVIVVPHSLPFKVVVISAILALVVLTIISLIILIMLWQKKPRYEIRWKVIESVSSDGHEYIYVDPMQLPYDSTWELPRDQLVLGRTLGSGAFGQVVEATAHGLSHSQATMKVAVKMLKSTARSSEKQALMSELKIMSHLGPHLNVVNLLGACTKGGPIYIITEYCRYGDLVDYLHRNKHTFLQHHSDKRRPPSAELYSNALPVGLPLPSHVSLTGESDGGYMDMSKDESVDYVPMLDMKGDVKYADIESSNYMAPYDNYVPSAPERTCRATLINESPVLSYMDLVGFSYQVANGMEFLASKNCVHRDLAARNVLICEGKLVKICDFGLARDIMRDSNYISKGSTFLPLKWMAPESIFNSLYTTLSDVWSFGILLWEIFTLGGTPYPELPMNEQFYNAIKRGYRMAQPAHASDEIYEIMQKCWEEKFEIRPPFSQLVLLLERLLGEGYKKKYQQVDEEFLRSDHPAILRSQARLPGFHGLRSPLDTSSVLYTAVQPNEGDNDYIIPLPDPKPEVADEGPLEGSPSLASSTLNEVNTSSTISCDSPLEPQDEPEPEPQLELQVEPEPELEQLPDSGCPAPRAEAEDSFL
Procedure: IC50 Determination for Inhibitors of PDGFR Kinase Assay Principle
PDGFR assay was carried out with human recombinant PDGFR beta, fluorescein labeled peptide substrate (with a peptide sequence of ALTSNQEYLDLSMPL) and test compounds (in serial dilution) using 384-well plates. Kinase reaction was performed in MOPS buffer (20 mM MOPS pH 7.1, 5 mM Sodium Acetate, 6.25 mM MgCl2, 0.5 mM EDTA, 1 mM DTT, 0.04 mM NaVO4, 0.02% BSA), in the presence of 48 uM ATP, incubated at room temperature for 60 minutes. Reaction was stopped by IMAP Bead Binding System (Molecular Devices). After incubation at room temperature for 2 hours, the reaction product was analyzed on LJL Acquest.
as §1

| Compound | IC50 [1] | IC50 [2] | IC50 [3] |
| --- | --- | --- | --- |
| Cc1ccccc1-c1cc2cnc(Nc3ccc(N4CCOCC4)cc3)nc2c(=O)n1C [Example 1, 7-Methyl-2-(4-morpholin-4-yl-phenylamino)-6-o-tolyl-7H-pyrido[3,4-d]pyrimidin-8-one] | 1 to 500 nM | 2.9 nM | 1 to 500 nM |
| COc1cccc(Cn2c(-c3ccccc3C)cc3cnc(Nc4cccc([S+](C)[O-])c4)nc3c2=O)c1 (stereo not shown) [Example 23, 2-(3-Methanesulfinyl-phenylamino)-7-(3-methoxy-benzyl)-6-o-tolyl-7H-pyrido[3,4-d]pyrimidin-8-one] | 1 to 500 nM | 1 to 500 nM | – |
| CCN(CC)CCOc1ccc(Nc2ncc3cc(-c4ccccc4C)n(Cc4cccc(OC)c4)c(=O)c3n2)cc1 [Example 22, 2-[4-(2-Diethylamino-ethoxy)-phenylamino]-7-(3-methoxy-benzyl)-6-o-tolyl-7H-pyrido[3,4-d]pyrimidin-8-one] | 1 to 500 nM | – | – |
| CCN(CC)CCOc1ccc(Nc2ncc3cc(-c4ccccc4C)n(C)c(=O)c3n2)cc1 [Example 7, 2-[4-(2-Diethylamino-ethoxy)-phenylamino]-7-methyl-6-o-tolyl-7H-pyrido[3,4-d]pyrimidin-8-one] | 1 to 500 nM | 1 to 500 nM | 1 to 500 nM |
| Cc1ccccc1-c1cc2cnc(NC3CCOCC3)nc2c(=O)n1C [Example 12, 7-Methyl-2-(tetrahydro-pyran-4-ylamino)-6-o-tolyl-7H-pyrido[3,4-d]pyrimidin-8-one] | 500 to 15000 nM | 687 nM | – |
| COc1cccc(Cn2c(-c3ccccc3C)cc3cnc(Nc4ccc(N5CCN(C)CC5)cc4)nc3c2=O)c1 [Example 20, 7-(3-Methoxy-benzyl)-2-[4-(4-methyl-piperazin-1-yl)-phenylamino]-6-o-tolyl-7H-pyrido[3,4-d]pyrimidin-8-one] | 1 to 500 nM | 1 to 500 nM | 500 to 15000 nM |
| CCN(CC)CCOc1ccc(Nc2ncc3cc(-c4ccccc4Cl)n(Cc4cc(C)n(C)n4)c(=O)c3n2)cc1 [Example 31, 6-(2-Chloro-phenyl)-2-[4-(2-diethylamino-ethoxy)-phenylamino]-7-(1,5-dimethyl-1H-pyrazol-3-ylmethyl)-7H-pyrido[3,4-d]pyrimidin-8-one] | 1 to 500 nM | 1 to 500 nM | – |
| Cc1cc(Cn2c(-c3ccccc3Cl)cc3cnc(Nc4cccc([S+](C)[O-])c4)nc3c2=O)nn1C (stereo not shown) [Example 33, 6-(2-Chloro-phenyl)-7-(1,5-dimethyl-1H-pyrazol-3-ylmethyl)-2-(3-methanesulfinyl-phenylamino)-7H-pyrido[3,4-d]pyrimidin-8-one] | 1 to 500 nM | 1 to 500 nM | – |
| Cc1ccccc1-c1cc2cnc(Nc3cccc([S+](C)[O-])c3)nc2c(=O)n1C (stereo not shown) [Example 10, 2-(3-Methanesulfinyl-phenylamino)-7-methyl-6-o-tolyl-7H-pyrido[3,4-d]pyrimidin-8-one] | 1 to 500 nM | 1 to 500 nM | 417 nM |
| COc1cccc(Cn2c(-c3ccccc3C)cc3cnc(Nc4ccc(S(=O)(=O)NCCO)cc4)nc3c2=O)c1 [Example 21, N-(2-Hydroxy-ethyl)-4-[7-(3-methoxy-benzyl)-8-oxo-6-o-tolyl-7,8-dihydro-pyrido[3,4-d]pyrimidin-2-ylamino]-benzenesulfonamide] | 1 to 500 nM | 1 to 500 nM | – |
| Cc1ccccc1-c1cc2cnc(NC(CO)CO)nc2c(=O)n1C [Example 4, 2-(2-Hydroxy-1-hydroxymethyl-ethylamino)-7-methyl-6-o-tolyl-7H-pyrido[3,4-d]pyrimidin-8-one] | 500 to 15000 nM | 500 to 1500 nM | – |

Second part, the compound after the results:

| IC50 [1] | IC50 [2] | IC50 [3] | Compound |
| --- | --- | --- | --- |
| 1 to 500 nM | 1 to 500 nM | 1 to 500 nM | Cc1ccccc1-c1cc2cnc(Nc3ccc(S(=O)(=O)NCCO)cc3)nc2c(=O)n1C [Example 6, N-(2-Hydroxy-ethyl)-4-(7-methyl-8-oxo-6-o-tolyl-7,8-dihydro-pyrido[3,4-d]pyrimidin-2-ylamino)-benzenesulfonamide] |
| 1 to 500 nM | 1 to 500 nM | 94 nM | Cc1ccccc1-c1cc2cnc(Nc3ccc(N4CCN(C)CC4)cc3)nc2c(=O)n1C [Example 3, 7-Methyl-2-[4-(4-methyl-piperazin-1-yl)-phenylamino]-6-o-tolyl-7H-pyrido[3,4-d]pyrimidin-8-one] |
| 1 to 500 nM | 1 to 500 nM | – | COc1cccc(Cn2c(-c3ccccc3Cl)cc3cnc(Nc4ccc(S(=O)(=O)NCCO)cc4)nc3c2=O)c1 [Example 37, 4-[6-(2-Chloro-phenyl)-7-(3-methoxy-benzyl)-8-oxo-7,8-dihydro-pyrido[3,4-d]pyrimidin-2-ylamino]-N-(2-hydroxy-ethyl)-benzenesulfonamide] |
| 1 to 500 nM | 1 to 500 nM | 500 to 15000 nM | Cc1cc(Cn2c(-c3ccccc3Cl)cc3cnc(Nc4ccc(N5CCN(C)CC5)cc4)nc3c2=O)nn1C [Example 30, 6-(2-Chloro-phenyl)-7-(1,5-dimethyl-1H-pyrazol-3-ylmethyl)-2-[4-(4-methyl-piperazin-1-yl)-phenylamino]-7H-pyrido[3,4-d]pyrimidin-8-one] |
| 77 nM | 1 to 500 nM | – | Cc1ccccc1-c1cc2cnc(Nc3ccc(S(=O)(=O)NCCO)cc3)nc2c(=O)n1CC(N)=O [Example 5, 2-{2-[4-(2-Hydroxy-ethylsulfamoyl)-phenylamino]-8-oxo-6-o-tolyl-8H-pyrido[3,4-d]pyrimidin-7-yl}-acetamide] |
| 214 nM | 1 to 500 nM | – | Cc1ccccc1-c1cc2cnc(Nc3cccc([S+](C)[O-])c3)nc2c(=O)n1CC(N)=O (stereo not shown) [Example 8, 2-[2-(3-Methanesulfinyl-phenylamino)-8-oxo-6-o-tolyl-8H-pyrido[3,4-d]pyrimidin-7-yl]-acetamide] |
